These are literature values, as cited in patent EP0475894A1, “Gemfibrozil formulations” (WARNER-LAMBERT COMPANY, priority 1990, dated 1992).

The conditions of the data set: particularly in a highly acidic medium.

Turning to `Cc1ccc(C)c(OCCCC(C)(C)C(=O)O)c1` [Gemfibrozil, 5-(2,5-dimethylphenoxy)-2,2-dimethylpentanoic acid], the solubility in water entry is reported as “very poor solubility in water”.
